In patent publication EP0184990A1, “Alkylidenedioxy compounds” (CIBA-GEIGY AG, priority 1984, dated 1986):
Read-outs that look alike come from different tables or passages of the source.

Legend:
[1] = tested on: Rauscher-Leukämie-Virus (RLV, ein RNS-Tumorvirus); test: Rauscher leukaemia virus infection in mice, survival time; assay type: in vivo, weibliche Balb/c-Mäuse; details: 20 p.o. administrations of 125 mg/kg each, female Balb/c mice infected with Rauscher leukaemia virus; controls 31,7 Tage (p < 0,001 Cox-Test)
Source text: Die Wirkung auf Virusinfektionen kann anhand von in vivo-Testanordnungen festgestellt werden. So besitzen Verbindungen der Formel I in Tierexperimenten bei gewissen neoplastischen Krankheiten, die durch RNS-Tumorviren hervorgerufen werden, oder bei denen RNS-Tumorviren nachweisbar sind, eine starke Wirksamkeit. Sie verlängern z.B. die mittlere Ueberlebensdauer von Mäusen nach Infektion mit Rauscher-Leukämie-Virus (RLV, ein RNS-Tumorvirus).
Bei den Versuchen mit Rauscher-Leukämie 4 Q (NIH) werden weibliche Balb/c-Mäuse (28 bis 34 Tage alt) mit 0,2 ml einer zehnfach mit Hanks Lösung verdünnten Virussuspension aus Milzmaterial von 4-6 Wochen vorher infizierten Mäusen infiziert. […] Die erste Verabreichung erfolgt 30 Minuten vor der Infektion, weitere Verabreichungen täglich einmal und fünfmal in der Woche während 4 Wochen. Als Kriterium für die Wirkung dient die Verlängerung der Ueberlebenszeit. Während bei den Kontrolltieren ab 30 Tagen nach der Infektion eine Leukämie mit leukämischen Blutzellen von über 50000/mm^3 gefunden werden können und die Tiere zu sterben beginnen, wird die Ueberlebenszeit der mit 125 mg/kg p.o. der Testsubstanz behandelten weiblichen Mäuse signifikant verlängert. […]

[2] = Maximum tolerated dose in mice after single administration; design: species or system Mäusen; details: mouse, in vivo, 7-day observation, read-out: maximal tolerierte Dosis
Protocol: Die pharmakologische Wirksamkeit der Verbindungen der vorliegenden Erfindung ist begleitet von einer guten Verträglichkeit. So liegt die maximal tolerierte Dosis für das obengenannte 6,6-Dimethyl-4,5-dihydro-6H-(1,3-dioxolo)r3,41naphthor1,2-blpyran in Mäusen nach einmaliger p.o- und i.p.-Verabreichung und anschliessender 7-tägiger Beobachtungsdauer über 2500 mg/kg bzw. über 1250 mg/kg.

With `CC1(C)CCc2c3c(c4ccccc4c2O1)OCO3` [Beispiel 1, 6,6-Dimethyl-4,5-dihydro-6H-(1,3-dioxolo)f3,41-naphthof1,2-blpyran] the Ueberlebenszeit [1] was 60,9 Tage, the MTD at 168 h ([2]; ip, single i.p. administration) was > 1250 mg/kg and the MTD at 168 h ([2]; po, single p.o. administration) was > 2500 mg/kg.
